According to patent publication US9309242B2, “Substituted pyrido[2,3-b]pyrazines as FGFR kinase inhibitors” (priority 2011, dated 2016):
Where a name gives a salt, the structure may show the parent alone. Read-outs that look alike come from different tables or passages of the source.

Key:
[1] = biological target: T1, Ba/F3-FGFR3-transfected cells (Homo sapiens, UniProt P22607); assay: Ba/F3-FGFR3 (minus IL3) cellular proliferation assay, Alamar Blue; type: cell-based
T1 construct: BAF3-FGFR3 (MIN IL3) pIC50; other: minus IL3
Method: (§1) Ba/F3-FGFR3 (Minus IL3 or Plus IL3) (Cellular Proliferation Assay)
(§2) In a 384 well plate, 100 nl of compound dilution in DMSO was sprayed before adding 50 μl cell culture medium (phenol red free RPMI-1640, 10% FBS, 2 mM L-Glutamine and 50 μg/ml Gentamycin) containing 20000 cells per well of Ba/F3-FGFR3-transfected cells. Cells were put in an incubator at 37° C. and 5% CO2. After 24 hours, 10 μl of Alamar Blue solution (0.5 mM K3Fe(CN)6, 0.5 mM K4Fe(CN)6, 0.15 mM Resazurin and 100 mM Phosphate Buffer) was added to the wells, incubated for 4 hours at 37° C. and 5% CO2 before RFU's (Relative Fluorescence Units) (ex. 540 nm., em. 590 nm.) were measured in a fluororescence plate reader. […]

[2] = system: Ba/F3-FGFR1-transfected cells; assay: Ba/F3-FGFR1 (plus IL3) cellular proliferation assay, counterscreen with 10 ng/ml murine IL3; type: cell-based; details: for BAF3-FGFR1 (PLUS IL3) pIC50: plus IL3 (10 ng/ml murine IL3, counterscreen); for IC50: read-out: BAF3-FGFR1 (PLUS IL3) pIC50 (converted)
Method: (§3) Ba/F3-FGFR1 (Minus IL3 or Plus IL3) (Cellular Proliferation Assay)
(§4) In a 384 well plate, 100 nl of compound dilution in DMSO was sprayed before adding 50 μl cell culture medium (phenol red free RPMI-1640, 10% FBS, 2 mM L-Glutamine and 50 μg/ml Gentamycin) containing 20000 cells per well of Ba/F3-FGFR1-transfected cells. Cells were put in an incubator at 37° C. and 5% CO2. After 24 hours, 10 μl of Alamar Blue solution (0.5 mM K3Fe(CN)6, 0.5 mM K4Fe(CN)6, 0.15 mM Resazurin and 100 mM Phosphate Buffer) was added to the wells, incubated for 4 hours at 37° C. and 5% CO2 before RFU's (Relative Fluorescence Units) (ex. 540 nm., em. 590 nm.) were measured in a fluororescence plate reader.
(§5) As a counterscreen the same experiment was performed in the presence of 10 ng/ml murine IL3.

[3] = system: Ba/F3-FGFR3-transfected cells; assay: Ba/F3-FGFR3 (plus IL3) cellular proliferation assay, counterscreen with 10 ng/ml murine IL3; type: cell-based; details: for BAF3-FGFR3 (PLUS IL3) pIC50: plus IL3 (10 ng/ml murine IL3, counterscreen); for IC50: read-out: BAF3-FGFR3 (PLUS IL3) pIC50 (converted)
Method: as §1
In a 384 well plate, 100 nl of compound dilution in DMSO was sprayed before adding 50 μl cell culture medium (phenol red free RPMI-1640, 10% FBS, 2 mM L-Glutamine and 50 μg/ml Gentamycin) containing 20000 cells per well of Ba/F3-FGFR3-transfected cells. Cells were put in an incubator at 37° C. and 5% CO2. After 24 hours, 10 μl of Alamar Blue solution (0.5 mM K3Fe(CN)6, 0.5 mM K4Fe(CN)6, 0.15 mM Resazurin and 100 mM Phosphate Buffer) was added to the wells, incubated for 4 hours at 37° C. and 5% CO2 before RFU's (Relative Fluorescence Units) (ex. 540 nm., em. 590 nm.) were measured in a fluororescence plate reader.
as §5

FGFR3 (h) = FGFR3 (h) (Homo sapiens, UniProt P22607); assay: FGFR3 (enzymatic assay), TR-FRET; type: biochemical; details: read-out: FGFR 3 pIC50 (converted)
Description: Time-Resolved Fluorescence Resonance Energy Transfer (TR-FRET) signal (ex340 nm.

[4] = system: Ba/F3-KDR-transfected cells; assay: Ba/F3-KDR (plus IL3) cellular proliferation assay, counterscreen with 10 ng/ml murine IL3; type: cell-based; details: for BAF3-KDR (PLUS IL3) pIC50: plus IL3 (10 ng/ml murine IL3, counterscreen); for IC50: read-out: BAF3-KDR (PLUS IL3) pIC50 (converted)
Method: (§6) Ba/F3-KDR (Minus IL3 or Plus IL3) (Cellular Proliferation Assay)
as §4, with “n1” for “nl”, “Ba/F3-KDR-transfected” for “Ba/F3-FGFR1-transfected”
as §5

[5] = biological target: T2, Ba/F3-FGFR1-transfected cells (Homo sapiens, UniProt P11362); assay: Ba/F3-FGFR1 (minus IL3) cellular proliferation assay, Alamar Blue; type: cell-based
T2 construct: BAF3-FGFR1 (MIN IL3) pIC50; other: minus IL3
Method: as §3, §4

FGFR4 (h) = FGFR4 (h) (Homo sapiens, UniProt P22455); assay: FGFR4 (enzymatic assay), TR-FRET; type: biochemical; details: FGFR 4 pIC50, enzymatic assay
KDR (h) = KDR (h) (Homo sapiens, UniProt P35968); assay: KDR (VEGFR2) (enzymatic assay), TR-FRET; type: biochemical; details: read-out: VEGFR 2 (KDR) pIC50 (converted)
Method: KDR (VEGFR2) (Enzymatic Assay)
In a final reaction volume of 30 μL, KDR (h) (150 ng/ml) was incubated with 50 mM HEPES pH 7.5, 6 mM MnCl2, 1 mM DTT, 0.1 mM Na3VO4, 0.01% Triton-X-100, 500 nM Btn-Flt3 and 3 μM ATP in the presence of compound (1% DMSO final). After incubation for 120 minutes at room temperature the reaction was stopped with 2.27 nM EU-anti P-Tyr, 7 mM EDTA, 31.25 nM SA-XL-665 and 0.02% BSA which was present for 60 minutes at room temperature. Time-Resolved Fluorescence Resonance Energy Transfer (TR-FRET) signal (ex340 nm. Em 620 nm, em 655 nm) was measured afterwards and results are expressed in RFU (Relative Fluorescence Units).

[6] = biological target: T3, Ba/F3-KDR-transfected cells (Homo sapiens, UniProt P35968); assay: Ba/F3-KDR (minus IL3) cellular proliferation assay, Alamar Blue; type: cell-based
T3 construct: BAF3-KDR (MIN IL3) pIC50; other: minus IL3
Method: as §6
as §2, with “n1” for “nl”, “Ba/F3-KDR-transfected” for “Ba/F3-FGFR3-transfected”

FGFR1 (h) = FGFR1 (h) (Homo sapiens, UniProt P11362); assay: FGFR1 (enzymatic assay), TR-FRET; type: biochemical; details: read-out: FGFR 1 pIC50 (converted)
[7] = biological target: Ba/F3-FGFR4-transfected cells (Homo sapiens, UniProt P22455); assay: Ba/F3-FGFR4 cellular proliferation assay, Alamar Blue; type: cell-based
Method: Ba/F3-FGFR4 (Cellular Proliferation Assay)
as §4, with “n1” for “nl”, “Ba/F3-FGFR4-transfected” for “Ba/F3-FGFR1-transfected”

FGFR2 (h) = FGFR2 (h) (Homo sapiens, UniProt P21802); assay: FGFR2 (enzymatic assay), TR-FRET; type: biochemical; details: enzymatic assay, read-out: FGFR 2 pIC50 (converted)
Method: In a final reaction volume of 30 μL, FGFR2 (h) (150 ng/ml) was incubated with 50 mM HEPES pH 7.5, 6 mM MnCl2, 1 mM DTT, 0.1 mM Na3VO4, 0.01% Triton-X-100, 500 nM Btn-Flt3 and 0.4 μM ATP in the presence of compound (1% DMSO final).

[8] = average values if tested multiple times

Chain of KDR (h) (P35968 20-1356): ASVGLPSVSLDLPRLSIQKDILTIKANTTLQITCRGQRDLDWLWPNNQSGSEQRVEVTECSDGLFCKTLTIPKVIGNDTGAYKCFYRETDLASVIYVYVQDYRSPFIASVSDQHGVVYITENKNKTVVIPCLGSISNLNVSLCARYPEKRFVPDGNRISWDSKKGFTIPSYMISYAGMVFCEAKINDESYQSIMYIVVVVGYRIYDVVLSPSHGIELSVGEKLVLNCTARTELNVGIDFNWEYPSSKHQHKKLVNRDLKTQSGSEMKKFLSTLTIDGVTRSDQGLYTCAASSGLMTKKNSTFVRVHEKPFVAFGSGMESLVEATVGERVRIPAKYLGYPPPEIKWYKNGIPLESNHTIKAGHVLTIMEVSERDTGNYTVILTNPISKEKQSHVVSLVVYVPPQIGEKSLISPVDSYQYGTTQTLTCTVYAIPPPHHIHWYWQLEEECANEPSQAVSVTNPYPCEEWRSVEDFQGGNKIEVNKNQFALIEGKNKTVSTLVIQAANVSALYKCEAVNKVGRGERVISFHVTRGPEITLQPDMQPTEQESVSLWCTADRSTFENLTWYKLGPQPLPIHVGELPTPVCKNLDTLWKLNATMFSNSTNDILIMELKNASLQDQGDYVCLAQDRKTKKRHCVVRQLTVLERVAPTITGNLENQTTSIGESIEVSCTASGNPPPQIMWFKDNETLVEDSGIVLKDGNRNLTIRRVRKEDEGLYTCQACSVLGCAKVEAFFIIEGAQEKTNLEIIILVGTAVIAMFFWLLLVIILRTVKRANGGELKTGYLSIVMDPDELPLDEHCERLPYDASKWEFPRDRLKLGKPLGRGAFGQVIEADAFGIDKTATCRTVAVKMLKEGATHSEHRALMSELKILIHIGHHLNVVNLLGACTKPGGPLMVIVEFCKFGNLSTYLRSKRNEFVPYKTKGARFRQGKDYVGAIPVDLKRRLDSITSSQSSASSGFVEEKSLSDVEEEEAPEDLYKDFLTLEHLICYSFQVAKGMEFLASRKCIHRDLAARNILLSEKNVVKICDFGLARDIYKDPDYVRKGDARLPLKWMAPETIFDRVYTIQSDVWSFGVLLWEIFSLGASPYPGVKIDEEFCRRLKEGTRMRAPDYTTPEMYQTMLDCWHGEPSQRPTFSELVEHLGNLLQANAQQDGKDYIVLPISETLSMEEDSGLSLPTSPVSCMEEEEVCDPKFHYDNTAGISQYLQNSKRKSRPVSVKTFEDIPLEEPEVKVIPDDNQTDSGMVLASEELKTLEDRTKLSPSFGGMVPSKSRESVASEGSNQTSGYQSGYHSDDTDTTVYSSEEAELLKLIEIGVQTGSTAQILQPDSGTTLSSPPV
T2 sequence (P11362 whole entry, change not shown): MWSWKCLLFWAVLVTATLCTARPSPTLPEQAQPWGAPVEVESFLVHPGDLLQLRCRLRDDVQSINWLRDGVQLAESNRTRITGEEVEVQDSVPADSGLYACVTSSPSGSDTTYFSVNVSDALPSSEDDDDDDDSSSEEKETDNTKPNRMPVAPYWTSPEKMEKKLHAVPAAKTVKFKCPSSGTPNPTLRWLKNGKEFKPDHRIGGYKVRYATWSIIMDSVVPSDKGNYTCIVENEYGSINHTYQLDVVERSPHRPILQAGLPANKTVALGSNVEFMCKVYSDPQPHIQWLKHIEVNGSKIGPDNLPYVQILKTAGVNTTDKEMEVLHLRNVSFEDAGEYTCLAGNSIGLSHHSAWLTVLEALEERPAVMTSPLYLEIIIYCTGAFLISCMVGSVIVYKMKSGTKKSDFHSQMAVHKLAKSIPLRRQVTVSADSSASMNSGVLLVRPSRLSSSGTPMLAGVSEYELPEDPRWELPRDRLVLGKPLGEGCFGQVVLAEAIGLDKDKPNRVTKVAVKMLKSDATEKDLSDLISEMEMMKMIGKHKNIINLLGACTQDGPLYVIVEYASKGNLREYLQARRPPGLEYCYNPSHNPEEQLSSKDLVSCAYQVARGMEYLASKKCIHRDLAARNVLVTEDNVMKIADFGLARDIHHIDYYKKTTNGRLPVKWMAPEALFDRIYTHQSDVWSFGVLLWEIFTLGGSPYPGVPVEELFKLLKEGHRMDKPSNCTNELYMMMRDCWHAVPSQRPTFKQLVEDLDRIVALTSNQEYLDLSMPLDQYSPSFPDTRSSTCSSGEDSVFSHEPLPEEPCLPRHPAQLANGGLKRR
Chain of FGFR2 (h) (P21802 22-821): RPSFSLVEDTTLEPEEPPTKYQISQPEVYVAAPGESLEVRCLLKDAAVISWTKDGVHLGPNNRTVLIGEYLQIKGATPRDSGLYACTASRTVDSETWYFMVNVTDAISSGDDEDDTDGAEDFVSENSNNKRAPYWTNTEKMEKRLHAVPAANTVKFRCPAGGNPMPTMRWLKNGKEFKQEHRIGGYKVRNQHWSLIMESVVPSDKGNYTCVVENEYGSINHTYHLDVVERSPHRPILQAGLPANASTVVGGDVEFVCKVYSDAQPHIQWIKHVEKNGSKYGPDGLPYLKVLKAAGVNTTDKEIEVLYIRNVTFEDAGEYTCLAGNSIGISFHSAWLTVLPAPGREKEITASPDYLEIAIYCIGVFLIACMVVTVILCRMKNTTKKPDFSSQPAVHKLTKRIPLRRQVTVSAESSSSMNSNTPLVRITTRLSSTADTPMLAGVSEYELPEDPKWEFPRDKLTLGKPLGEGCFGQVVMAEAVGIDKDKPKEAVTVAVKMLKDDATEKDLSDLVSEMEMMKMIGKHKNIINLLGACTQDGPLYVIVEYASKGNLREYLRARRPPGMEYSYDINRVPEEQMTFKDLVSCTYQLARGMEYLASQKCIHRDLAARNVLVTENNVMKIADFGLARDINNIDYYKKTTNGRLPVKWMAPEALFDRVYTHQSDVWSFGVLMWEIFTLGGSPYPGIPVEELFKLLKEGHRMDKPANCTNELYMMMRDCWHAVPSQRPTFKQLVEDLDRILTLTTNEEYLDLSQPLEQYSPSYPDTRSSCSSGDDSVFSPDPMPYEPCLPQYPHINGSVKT
T3 sequence (P35968 whole entry, change not shown): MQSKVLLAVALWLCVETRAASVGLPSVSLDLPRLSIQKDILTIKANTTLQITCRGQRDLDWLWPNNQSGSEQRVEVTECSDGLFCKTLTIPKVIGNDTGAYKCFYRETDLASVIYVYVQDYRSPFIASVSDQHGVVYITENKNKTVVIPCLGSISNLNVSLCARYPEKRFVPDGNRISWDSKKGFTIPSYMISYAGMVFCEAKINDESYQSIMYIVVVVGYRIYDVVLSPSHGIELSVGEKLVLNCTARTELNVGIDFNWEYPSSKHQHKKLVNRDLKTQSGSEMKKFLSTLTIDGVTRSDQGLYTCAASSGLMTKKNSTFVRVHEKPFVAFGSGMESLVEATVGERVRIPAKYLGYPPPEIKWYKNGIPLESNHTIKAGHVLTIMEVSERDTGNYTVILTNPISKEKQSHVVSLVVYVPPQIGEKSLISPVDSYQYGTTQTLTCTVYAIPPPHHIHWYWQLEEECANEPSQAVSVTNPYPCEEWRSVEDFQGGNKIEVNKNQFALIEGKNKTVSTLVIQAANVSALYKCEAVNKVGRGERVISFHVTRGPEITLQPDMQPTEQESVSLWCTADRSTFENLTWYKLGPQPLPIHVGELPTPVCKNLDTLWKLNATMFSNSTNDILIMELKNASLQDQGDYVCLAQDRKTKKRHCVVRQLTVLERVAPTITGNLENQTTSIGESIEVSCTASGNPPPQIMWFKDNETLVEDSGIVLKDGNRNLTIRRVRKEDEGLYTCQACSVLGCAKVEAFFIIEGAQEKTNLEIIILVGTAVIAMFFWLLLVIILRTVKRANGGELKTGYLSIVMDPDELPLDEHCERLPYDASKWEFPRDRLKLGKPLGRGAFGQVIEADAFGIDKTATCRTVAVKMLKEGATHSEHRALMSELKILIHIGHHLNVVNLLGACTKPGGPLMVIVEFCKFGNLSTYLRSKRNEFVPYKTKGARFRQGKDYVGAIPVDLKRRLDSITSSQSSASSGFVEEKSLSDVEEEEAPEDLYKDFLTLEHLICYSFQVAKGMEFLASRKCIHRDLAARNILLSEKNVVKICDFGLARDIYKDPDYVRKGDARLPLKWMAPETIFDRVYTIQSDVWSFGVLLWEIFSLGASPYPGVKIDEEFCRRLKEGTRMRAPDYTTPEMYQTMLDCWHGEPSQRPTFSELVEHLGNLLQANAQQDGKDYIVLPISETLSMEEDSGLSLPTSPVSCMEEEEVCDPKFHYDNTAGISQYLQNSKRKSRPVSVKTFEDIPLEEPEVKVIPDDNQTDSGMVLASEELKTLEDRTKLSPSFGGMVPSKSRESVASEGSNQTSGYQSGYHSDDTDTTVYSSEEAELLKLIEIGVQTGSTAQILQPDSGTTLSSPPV
Chain of FGFR1 (h) (P11362 22-822): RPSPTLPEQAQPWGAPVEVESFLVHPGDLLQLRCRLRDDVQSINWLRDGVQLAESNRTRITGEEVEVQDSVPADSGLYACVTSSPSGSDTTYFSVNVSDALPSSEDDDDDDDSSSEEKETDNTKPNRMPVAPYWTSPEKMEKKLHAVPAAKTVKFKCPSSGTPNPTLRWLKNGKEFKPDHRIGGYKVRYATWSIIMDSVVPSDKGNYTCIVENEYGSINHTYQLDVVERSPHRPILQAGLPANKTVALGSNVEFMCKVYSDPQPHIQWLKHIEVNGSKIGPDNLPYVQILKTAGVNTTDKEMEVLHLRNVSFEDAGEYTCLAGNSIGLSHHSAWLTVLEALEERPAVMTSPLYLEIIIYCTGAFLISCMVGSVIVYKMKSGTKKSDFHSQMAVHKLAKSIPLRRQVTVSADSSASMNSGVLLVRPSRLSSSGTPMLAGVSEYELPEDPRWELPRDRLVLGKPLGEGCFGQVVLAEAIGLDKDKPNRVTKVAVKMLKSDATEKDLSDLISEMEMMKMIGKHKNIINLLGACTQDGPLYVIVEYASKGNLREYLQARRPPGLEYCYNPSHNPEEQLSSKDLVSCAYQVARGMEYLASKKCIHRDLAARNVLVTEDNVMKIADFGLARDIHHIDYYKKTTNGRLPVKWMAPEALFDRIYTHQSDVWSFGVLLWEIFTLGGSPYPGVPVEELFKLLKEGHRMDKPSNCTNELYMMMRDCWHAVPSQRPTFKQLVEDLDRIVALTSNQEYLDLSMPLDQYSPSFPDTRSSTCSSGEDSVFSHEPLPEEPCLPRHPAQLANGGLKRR

Compound	BAF3-FGFR3 (MIN IL3) pIC50 [1]	BAF3-FGFR1 (PLUS IL3) pIC50 [2]	BAF3-FGFR3 (PLUS IL3) pIC50 [3]	IC50 (FGFR3 (h); [8])	BAF3-KDR (PLUS IL3) pIC50 [4]	BAF3-FGFR1 (MIN IL3) pIC50 [5]	IC50 (FGFR4 (h); [8])	IC50 (KDR (h); [8])	BAF3-KDR (MIN IL3) pIC50 [6]	IC50 (FGFR1 (h); [8])	BAF3-FGFR4 pIC50 [7]	IC50 (FGFR2 (h); [8])	IC50 (FGFR3 (h))	IC50 (FGFR4 (h))	IC50 (KDR (h))	IC50 (FGFR1 (h))	IC50 (FGFR2 (h))	IC50 [2]	IC50 [3]	IC50 [4]
COc1cc(OC)cc(N(Cc2ncc[nH]2)c2ccc3ncc(-c4cnn(C)c4)nc3n2)c1 [24-phosphate salt]	7.74	<5	<5	0.832 nM	<5	8.42	1.02 nM	14.5 nM	6.05	0.708 nM	7.47	1.23 nM								
COc1cc(OC)cc(N(Cc2ncc[nH]2)c2ccc3ncc(-c4cnn(C)c4)nc3n2)c1 [24-sulphate salt]	~8.15	<5	<5	~0.912 nM	<5	8.29	0.759 nM	13.2 nM	6.15	0.55 nM	7.57	1.29 nM								
COc1cc(OC)c(F)c(N(CC(O)COC(C)C)c2ccc3ncc(-c4cnn(C)c4)nc3n2)c1F (stereo not drawn) [Compound 61]	7.87	<5	<5	3.98 nM	<5	7.56	4.07 nM	16.6 nM	6.29	2.24 nM	7.56	4.17 nM								
COc1ccc(Cl)c(N(CC2CCC(=O)N2)c2ccc3ncc(-c4cnn(C)c4)nc3n2)c1Cl (single isomer, unassigned) [Compound 91]	5.17	<5	<5		<5	5.13			<5		<5		138 nM	> 1000 nM	741 nM	219 nM	145 nM			
CCN(c1ccc2ncc(-c3cnn(C)c3)nc2n1)c1c(F)c(OC)cc(OC)c1F [Compound 256]	8.16					8.05			6.16		7.36		0.708 nM	1.02 nM	8.71 nM	0.49 nM	1.66 nM	> 10 µM	> 10 µM	> 10 µM
COc1cc(/N=c2\ccc3ncc(-c4cnn(C)c4)nc3n2CCN2CCCC2=O)cc(OC)c1 [Compound 150]	~7.06					6.80			5.34		6.18		3.55 nM	14.8 nM	30.9 nM	3.8 nM	2.51 nM	> 10 µM	> 10 µM	> 10 µM
CNCCn1/c(=N/c2c(F)ccc(OC)c2Cl)ccc2ncc(-c3cnn(C)c3)nc21 [Compound 70]	6.31			38.9 nM		5.75	93.3 nM	537 nM	<5	39.8 nM	5.69	23.4 nM						> 10 µM	> 10 µM	> 10 µM
CNCCn1/c(=N/c2c(Cl)c(OC)cc(OC)c2Cl)ccc2ncc(-c3cnn(C)c3)nc21 [Compound 82]	~6.61			14.1 nM		6.67	182 nM	490 nM	<5	11.7 nM	5.43	10.7 nM						> 10 µM	> 10 µM	> 10 µM
